ChEMBL document CHEMBL5108010, “Structure-activity relationship studies on divalent naphthalene diimide G quadruplex ligands with anticancer and antiparasitic activity” (Bioorg Med Chem, 2022)

Key:
[1] = Drug uptake in Trypanosoma brucei assessed as drug internalization at 5 uM incubated for 2 hrs by DAPI staining based confocal fluorescence microscopic analysis; format: ADME
Quadruplex DNA [2] = test: Binding affinity to Trypanosoma brucei G-quadruplex telomeric DNA FEBR1T (5'-duplex GGG TTAGGG TTAGGG TTAGGG-3') assessed as stabilization by measuring change in melting temperature at 10 uM in potassium buffer by FRET melting assay; format: nucleic-acid assay
[3] = Selectivity index, ratio of IC50 for cytotoxicity against human MRC5 cells to IC50 for cytotoxicity against human HeLa cells; format: toxicity, cell-based; settings: MRC5 cells versus HeLa cells, read-out: Ratio IC50
Quadruplex DNA [4] = test: Binding affinity to G-quadruplex telomeric DNA F21T (5'-duplex GGG TTAGGG TTAGGG TTAGGG-3') (unknown origin) assessed as stabilization by measuring change in melting temperature at 10 uM in sodium buffer by FRET melting assay; format: nucleic-acid assay
[5] = Drug internalization in nuclei of human MRC5 cells at 5 uM incubated for 2 hrs by DAPI staining based confocal fluorescence microscopic analysis; format: ADME, cell-based; settings: mrc5, 2 h
Quadruplex DNA [6] = test: Binding affinity to G-quadruplex telomeric DNA F21T (5'-duplex GGG TTAGGG TTAGGG TTAGGG-3') (unknown origin) assessed as stabilization by measuring change in melting temperature at 10 uM in potassium buffer by FRET melting assay; format: nucleic-acid assay
Trypanosoma brucei = test: Antitrypanosomal activity against Trypanosoma brucei bloodstream form assessed as inhibition of parasite growth incubated for 72 hrs by alamar blue assay; format: functional, organism-based; settings: Trypanosoma brucei, 72 h
[7] = Selectivity index, ratio of IC50 for cytotoxicity against human MRC5 cells to IC50 for antileishmanial activity against Leishmania major (MHOM/IL/80/Friedlin) promastigotes; format: toxicity, cell-based; settings: read-out: Ratio IC50
[8] = Drug uptake in human MRC5 cells assessed as drug internalization at 5 uM incubated for 30 mins by DAPI staining based confocal fluorescence microscopic analysis; format: ADME, cell-based; settings: mrc5, 0.5 h
[9] = Binding affinity to hairpin duplex DNA F10T (unknown origin) assessed as stabilization by measuring change in melting temperature at 10 uM in potassium buffer by FRET melting assay
[10] = Drug internalization in nuclei of Trypanosoma brucei at 5 uM incubated for 6 hrs by DAPI staining based confocal fluorescence microscopic analysis; format: ADME
[11] = Drug uptake in Trypanosoma brucei assessed as drug internalization at 5 uM incubated for 6 hrs by DAPI staining based confocal fluorescence microscopic analysis; format: ADME
[12] = Drug uptake in human MRC5 cells incubated at 4 degreeC for 2 hrs by flow cytometry analysis; format: ADME, cell-based; settings: mrc5, 2 h
[13] = Drug uptake in human MRC5 cells assessed as drug internalization at 5 uM incubated for 120 mins by DAPI staining based confocal fluorescence microscopic analysis; format: ADME, cell-based; settings: mrc5, 2 h
[14] = Drug uptake in Trypanosoma brucei incubated at 4 degreeC for 2 hrs by flow cytometry analysis; format: ADME
[15] = Drug uptake in human MRC5 cells incubated at 4 degreeC for 30 mins by flow cytometry analysis; format: ADME, cell-based; settings: mrc5, 0.5 h
Leishmania major = test: Antileishmanial activity against Leishmania major (MHOM/IL/80/Friedlin) promastigotes assessed as inhibition of parasite growth incubated for 72 hrs by MTT assay; format: functional, organism-based; settings: Leishmania major, MHOM/IL/80/Friedlin, 72 h
[16] = Cytotoxicity against human MRC5 cells assessed as inhibition of cell proliferation incubated for 72 hrs by alamar blue assay; format: toxicity, cell-based; settings: human, MRC5 cells
[17] = Drug uptake in human MRC5 cells incubated at 37 degreeC for 2 hrs by flow cytometry analysis; format: ADME, cell-based; settings: mrc5, 2 h
[18] = Selectivity index, ratio of IC50 for cytotoxicity against human MRC5 cells to IC50 for antitrypanosomal activity against Trypanosoma brucei bloodstream form; format: toxicity, cell-based; settings: MRC5 cells versus Trypanosoma brucei bloodstream form, read-out: Ratio IC50
[19] = Drug uptake in Trypanosoma brucei incubated at 37 degreeC for 2 hrs by flow cytometry analysis; format: ADME
Quadruplex DNA [20] = test: Binding affinity to G-quadruplex telomeric DNA FMycT (5'-duplex GGG TTAGGG TTAGGG TTAGGG-3') (unknown origin) assessed as stabilization by measuring change in melting temperature at 10 uM in potassium buffer by FRET melting assay; format: nucleic-acid assay
HeLa = test: Cytotoxicity against human HeLa cells assessed as inhibition of cell proliferation incubated for 72 hrs by alamar blue assay; format: functional, cell-based; settings: Homo sapiens, HeLa, 72 h
[21] = Drug uptake in Trypanosoma brucei incubated at 4 degreeC for 16 hrs by flow cytometry analysis; format: ADME
[22] = Drug uptake in human MRC5 cells incubated at 37 degreeC for 30 mins by flow cytometry analysis; format: ADME, cell-based; settings: mrc5, 0.5 h
[23] = Drug uptake in Trypanosoma brucei incubated at 37 degreeC for 16 hrs by flow cytometry analysis; format: ADME

- Drug uptake [1]: Active
- ΔTm (Quadruplex DNA [2]): 0.9 °C
- ΔTm (Quadruplex DNA [4]): 1.3 °C
- Drug uptake [5]: Active
- ΔTm (Quadruplex DNA [6]): 1.4 °C
- IC50 (Trypanosoma brucei): 750 nM
- Drug uptake [8]: Active
- ΔTm [9]: -0.1 °C
- Drug uptake [10]: Active
- Drug uptake [11]: Active
- Drug uptake [12]: Active
- Drug uptake [13]: Active
- Drug uptake [14]: Active
- Drug uptake [15]: Active
- Drug uptake [17]: Active
- Drug uptake [19]: Active
- ΔTm (Quadruplex DNA [20]): 1.8 °C
- Drug uptake [21]: Active
- Drug uptake [22]: Active
- Drug uptake [23]: Active
Structure (SMILES): CN1CCN(c2ccc(N3C(=O)c4ccc5c6c(ccc(c46)C3=O)C(=O)N(c3ccc(N4CCN(C)CC4)cc3)C5=O)cc2)CC1
- selectivity ratio [3]: 9.72
- selectivity ratio [7]: 23.8
- IC50 (Leishmania major): 930 nM
- IC50 at 72 h [16]: 22300 nM
- selectivity ratio [18]: 29.5
- IC50 (HeLa): 2290 nM
